Test results taken from patent publication US20260242416A1, “ANTIMICROBIAL PEPTIDES” (priority 2023, published 2026).
Entries after “also recorded” stand apart in the source; their conditions may differ. Read-outs that look alike come from different tables or passages of the source. Where a SMILES comes first, the peptide text is derived from it.

What was measured:
[1] = tested on: S. aureus ATCC 29213; format: cell-based, Staphylococcus aureus
In short: (§1)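 CLSI broth microdilution adapted for cationic peptides, in Mueller-Hinton broth, inoculum 2-8×10^5 cfu/mL. Peptides serially diluted from 128 to 0.5 μg/mL in polypropylene plates, incubated 20-24 h at 37° C. MIC = lowest concentration without visible growth.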

[2] = tested on: E. coli ATCC 25922; format: cell-based, Escherichia coli
In short: as §1

[3] = tested on: Salmonella enterica serovar Enteritidis (human clinical isolate); format: cell-based
In short: as §1

[4] = tested on: HEK293 cells; experiment: alamarBlue cell viability assay (cytotoxicity); format: cell-based, human; details: concentrations up to 128 μg/mL
Procedure: The human embryonic kidney cell line HEK293 and the corresponding growth media and supplements were purchased from the ATCC. The cells were maintained in Eagle's Minimum Essential Medium (EMEM) supplemented with 10% fetal bovine serum (FBS) and 1% Penicillin-Streptomycin solution and grown in a 5% CO2 incubator at 37° C. […] Cells were incubated overnight to allow them to adhere. […] TX-100 was diluted to 2% in UltraPure deionized water and added as a positive control. Complete growth medium was added to the peptides and TX-100 containing wells. Spent growth medium of wells with adhered cells was replaced with the contents of wells containing serially diluted peptides or TX-100. Cells were incubated for four hours at 37° C. in 5% CO2 incubator. Growth medium containing peptides or TX-100 was replaced with fresh growth medium containing 10% (v/v) alamarBlue (Bio-Rad Laboratories, Hercules, CA, USA) and incubated for 20 h. Fluorescence was measured at excitation of 540 nm and emission of 590 nm in a Cytation 5 plate reader (Agilent BioTek, Winooski, VT, USA) and results recorded and analyzed with Gen5 software (Agilent BioTek, Winooski, VT, USA). The average fluorescence reads of TX-100 and growth media only wells were used to calculate 0% and 100% cell viability, respectively. The percentage of viable cells at each peptide concentration was determined by Formula 1: […]

[5] = tested on: E. coli ATCC 25922, Salmonella Enteritidis, S. aureus ATCC 29213; experiment: Broth microdilution, panel result (at least one / all strains), Example 2; format: cell-based; set-up: key to inhibitory activity (asterisk): *Indicates inhibitory activity; details: for inhibitory activity (asterisk): Table 14, against at least one of E. coli ATCC 25922, Salmonella Enteritidis, S. aureus ATCC 29213
In short: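 CLSI broth microdilution adapted for cationic peptides, in MHB with a final inoculum of 2-8×10^5 cfu/mL in polypropylene plates. Peptides were serially diluted from 128 down to 0.5 μg/mL and incubated 20-24 h at 37° C. MIC is the lowest concentration with no visible growth.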

[6] = serovar Enteritidis (human clinical isolate)

MIC (ug/mL) S. aureus ([1]; ATCC 29213) | MIC (ug/mL) E. coli ([2]; ATCC 25922) | MIC against E. coli ([2]; ATCC 25922) [µg/mL] | MIC (ug/mL) S. Enteritidis [3, 6] | MIC against Salmonella Enteritidis [3, 6] [µg/mL] | SMILES | cytotoxicity [4] | inhibitory activity (asterisk) [5] | spectrum of antimicrobial activity ([5]; panel of E. coli, Salmonella Enteritidis, S. aureus, up to 128 μg/mL) | MIC (ug/mL) S. aureus ([1]; Table 14, third value of the cell, three independent experiments, highest concentration tested 128) [µg/mL] | MIC (ug/mL) E. coli ([2]; Table 14, first value of the cell, three independent experiments, highest concentration tested 128) [µg/mL] | MIC (ug/mL) S. Enteritidis ([3]; Table 14, second value of the cell, three independent experiments, highest concentration tested 128) [µg/mL]
> 128 µg/mL | 2 to 4 µg/mL | 2 to 4 | 4 to 8 µg/mL | 4 to 8 | CC(C)C[C@H](NC(=O)[C@H](CCCNC(=N)N)NC(=O)[C@@H]1CCCN1C(=O)[C@H](Cc1c[nH]cn1)NC(=O)[C@@H]1CCCN1C(=O)[C@@H]1CCCN1C(=O)[C@H](CCCNC(=N)N)NC(=O)[C@@H]1CCCN1C(=O)[C@@H]1CCCN1C(=O)[C@@H](NC(=O)[C@H](CCC(N)=O)NC(=O)[C@H](CCC(N)=O)NC(=O)[C@@H]1CCCN1C(=O)[C@H](CCCNC(=N)N)NC(=O)[C@@H]1CCCN1C(=O)[C@@H](N)CCCNC(=N)N)C(C)C)C(=O)N[C@@H](CCCNC(=N)N)C(=O)N[C@@H](CCCNC(=N)N)C(=O)O [PaVa1, RPRPQQVPPRPPHPRLRR] (H-RPRPQQVPPRPPHPRLRR-OH) | not to be toxic to HEK293 cells at any of the concentrations tested; also recorded: not toxic against either porcine erythrocytes or HEK293 cells | – | – | – | – | –
4 to 8 µg/mL | 8 to 16 µg/mL | – | 4 to 8 µg/mL | – | CC(C)C[C@H](NC(=O)CN)C(=O)N[C@@H](CC(C)C)C(=O)NCC(=O)N[C@@H](CCCCN)C(=O)N[C@H](C(=O)N[C@@H](CC(C)C)C(=O)NCC(=O)N[C@H](C(=O)NCC(=O)N[C@@H](CCCCN)C(=O)N[C@@H](CCCCN)C(=O)N[C@H](C(=O)N[C@@H](CC(C)C)C(=O)N[C@@H](CS)C(=O)O)C(C)C)C(C)C)C(C)C [PeNi4, GLLGKVLGVGKKVLC] (H-GLLGKVLGVGKKVLC-OH; N-terminus and C-terminus assumed) | – | 424.* GLLGKVLGVGKKVLC | – | – | – | –
>128/>128/>128 ug/mL | >128/>128/>128 ug/mL | – | >128/>128/>128 ug/mL | – | C[C@H](NC(=O)CN)C(=O)N1CCC[C@H]1C(=O)N[C@@H](CCCCN)C(=O)NCC(=O)N[C@@H](CS)C(=O)N[C@@H](Cc1c[nH]c2ccccc12)C(=O)N[C@H](C(=O)N[C@@H](CCCCN)C(=O)N[C@@H](CO)C(=O)N[C@@H](Cc1ccc(O)cc1)C(=O)N1CCC[C@H]1C(=O)N1CCC[C@H]1C(=O)N[C@@H](CCCCN)C(=O)N1CCC[C@H]1C(=O)N[C@@H](CS)C(=O)N[C@@H](CO)C(=O)NCC(=O)N[C@@H](CCCCN)C(=O)N[C@@H](CCCNC(=N)N)C(N)=O)[C@@H](C)O [PeNi12] (H-GAPKGCWTKSYPPKPCSGKR-NH2; N-terminus and C-terminus assumed) | – | – | non-inhibitory against the panel of bacteria at the concentrations tested | – | – | –
– | – | – | – | – | CC[C@H](C)[C@H](NC(=O)[C@H](CO)NC(=O)[C@H](CC(C)C)NC(=O)[C@H](CO)NC(=O)[C@H](CCCCN)NC(=O)[C@H](CC(C)C)NC(=O)[C@H](C)NC(=O)[C@@H](N)[C@@H](C)O)C(=O)N[C@@H](CC(C)C)C(=O)N[C@@H](CCCCN)C(=O)N[C@@H](CCCCN)C(=O)N[C@@H](CC(C)C)C(=O)N[C@@H](C)C(=O)N[C@@H](CCCCN)C(=O)N[C@@H](CC(C)C)C(=O)N[C@@H](CC(N)=O)C(=O)N[C@@H](CCSC)C(=O)O [PoSn2, TALKSLSILKKLAKLNM] (H-TALKSLSILKKLAKLNM-OH; N-terminus and C-terminus assumed) | – | 942.* TALKSLSILKKLAKLNM | – | > 128 | 64 to 128 | > 128

SMILES | MIC (ug/mL) S. aureus ([1]; ATCC 29213) | MIC (ug/mL) E. coli ([2]; ATCC 25922) | MIC against E. coli ([2]; ATCC 25922) [µg/mL] | MIC (ug/mL) S. Enteritidis [3, 6] | MIC against Salmonella Enteritidis [3, 6] [µg/mL] | cytotoxicity [4] | inhibitory activity (asterisk) [5] | spectrum of antimicrobial activity ([5]; panel of E. coli, Salmonella Enteritidis, S. aureus, up to 128 μg/mL) | MIC (ug/mL) S. aureus ([1]; Table 14, third value of the cell, three independent experiments, highest concentration tested 128) [µg/mL] | MIC (ug/mL) E. coli ([2]; Table 14, first value of the cell, three independent experiments, highest concentration tested 128) [µg/mL] | MIC (ug/mL) S. Enteritidis ([3]; Table 14, second value of the cell, three independent experiments, highest concentration tested 128) [µg/mL]
CC[C@H](C)[C@H](N)C(=O)N[C@@H](CO)C(=O)N[C@H](C(=O)N[C@@H](CCCCN)C(=O)N[C@@H](CCC(=O)O)C(=O)N[C@@H](C)C(=O)N[C@@H](CC(C)C)C(=O)N[C@@H](CCC(=O)O)C(=O)N[C@@H](Cc1c[nH]cn1)C(=O)N[C@@H](CO)C(=O)N[C@@H](Cc1ccccc1)C(=O)N[C@@H](Cc1ccccc1)C(=O)N[C@@H](Cc1c[nH]cn1)C(=O)N[C@H](C(=O)N[C@H](C(=O)N1CCC[C@H]1C(=O)N[C@@H](CCCNC(=N)N)C(=O)N[C@@H](CCCCN)C(=O)N[C@@H](Cc1c[nH]c2ccccc12)C(=O)N[C@@H](CS)C(=O)N[C@@H](CCCCN)C(=O)N[C@@H](CCCCN)C(=O)N[C@@H](Cc1c[nH]cn1)C(=O)O)C(C)C)[C@@H](C)O)[C@@H](C)CC [PoSn1] (H-ISIKEALEHSFFHTVPRKWCKKH-OH) | 64/>128/>128 ug/mL | 64/>128/>128 ug/mL | – | 64/>128/>128 ug/mL | – | – | 936.* ISIKEALEHSFFHTVPRKWCKKH | – | – | – | –
